Reference: patent US20160374981A1, “ANORECTIC AGENT” (Nippon Suisan Kaisha, Ltd., priority 2012, published 2016)

Columns and labels:
Assay type in all cases: in vivo
[1] = Single-dose oral administration of free fatty acids to SD rats: food intake; details: male SD rats
Description: Using a 1.5% (by weight) aqueous solution of a fatty acid ester of glycerol (RYOTO® POLYGLYESTER; product of Mitsubishi-Kagaku Foods Corporation) as a solvent, a free fatty acid form of palmitoleic acid (C16:1), a free fatty acid form of palmitic acid (C16:0), a free fatty acid form of oleic acid (C18:1), a free fatty acid form of lauric acid (C12:0), a free fatty acid form of decenoic acid (C10:1), and a free fatty acid form of linoleic acid (C18:2), all being products of Sigma, were added to the solvent and uniformly emulsified by sonication in an ice bath to thereby prepare dosing samples.
(§1) Male Sprague-Dawley rats (hereinafter referred to as SD rats) were used in the experiment. Nine-week-old SD rats (Japan SLC, Inc.) were purchased and preliminarily reared for a week in individual cages. During the preliminary rearing period, the animals were allowed free access to the solid feed Labo MR Stock (Nosan Corporation) and distilled water through water bottles.
After the preliminary rearing, the 10-week-old SD rats were divided into the following seven groups (10 animals per group) considering their body weight: a control group administered with only the solvent (hereinafter referred to as “control group”); a group administered with palmitoleic acid (C16:1) (hereinafter “C16:1 administered group”); a group administered with palmitic acid (C16:0) (hereinafter “C16:0 administered group”); a group administered with oleic acid (C18:1) (hereinafter “C18:1 administered group”); a group administered with lauric acid (C12:0) (hereinafter “C12:0 administered group”); a group administered with decenoic acid (C10:1) (hereinafter “C10:1 administered group”); and a group administered with linoleic acid (C18:2) (hereinafter “C18:2 administered groups”); these groups of rats were subjected to the main test. In the main test, the solvent or each fatty acid under test was orally administered in a single dose through a gastric tube on the very day of the experiment. To the control group of SD rats, the solvent was orally administered at a dose of 10 mL/kg per animal. The test subjects, C16:1, C16:0, C18:1, C12:0, C10:1 and C18:2, each taken in an amount of 150 mg or 500 mg, were added to 10 mL of the solvent and emulsified; the emulsion was orally administered to the SD rats in a dose of 10 mL/kg per animal and a measurement was conducted both 30 minutes and an hour later. The amount of food intake (the amount of food supplied immediately after the dosing of sample minus the amount of food at a specified time after the dosing of sample) was measured both 30 minutes and an hour after oral administration of the test sample.

[2] = Long-term oral administration of free fatty acids to KKAy mice: food intake and body weight; details: male KKAy mice
Description: Using a 1.5% (by weight) aqueous solution of a fatty acid ester of glycerol (RYOTO®POLYGLYESTER; product of Mitsubishi-Kagaku Foods Corporation) as a solvent, a free fatty acid form of palmitoleic acid (C16:1), a free fatty acid form of palmitic acid (C16:0), a free fatty acid form of gadoleic acid (C20:1), and a free fatty acid form of erucic acid (C22:1), all being products of Sigma with purities of 99% and more, were added to the solvent and uniformly emulsified by sonication in an ice bath to thereby prepare dosing samples.
as §1, with “Male, spontaneously diabetic model mice KKAy/Ta” for “Male Sprague-Dawley rats”, “KKAy mice)” for “SD rats)”, “test. Five-week-old KKAy mice (CLEA Japan,” for “experiment. Nine-week-old SD rats (Japan SLC,”
After the preliminary rearing, the 6-week-old KKAy mice were divided into the following five groups (10 animals per group) considering their body weight: a control group administered with only the solvent (hereinafter referred to as “control group”); a group administered with palmitoleic acid (C16:1) (hereinafter “C16:1 administered group”); a group administered with palmitic acid (C16:0) (hereinafter “C16:0 administered group”); a group administered with gadoleic acid (C20:1) (hereinafter “C20:1 administered group”); and a group administered with erucic acid (C22:1) (hereinafter “C22:1 administered group”); these groups of mice were subjected to the main test. In the main test, the mice of each group were reared for 4 weeks under the environment of light (12 hr) and dark (12 hr) cycles as they were allowed free access to the powdered feed Labo MR Stock (Nosan Corporation) and distilled water through water bottles. In the process, the solvent or each fatty acid under test was orally administered through a gastric tube at 10 a.m. every day. […]
During the 4-week rearing period, the amount of food supplied was measured at days 1, 5, 9, 12, 16, 19, 23 and 26 after dosing and the amount of leftover was measured on the next day, with the respective measurements being conducted for each feeder. The amount of daily food intake was calculated from the difference between the values for two consecutive measurements. The “average food intake” is the average of the food intakes as measured on the respective days of measurement. […] The percent body weight gain was calculated by the formula [(final body weight−initial body weight)/initial body weight]×100. The “final body weight” is the body weight as measured after the end of the 4-week rearing period whereas “initial body weight” is the body weight as measured at the start of the test.

cholecystokinin (CCK) = experiment: Blood cholecystokinin (CCK) level in SD rats after single oral dose (ELISA); details: male SD rats, versus control group (FIG. 13)
Description: (§2) Using a 1.5% (by weight) aqueous solution of a fatty acid ester of glycerol (RYOTO® POLYGLYESTER; product of Mitsubishi-Kagaku Foods Corporation) as a solvent, a free fatty acid form of palmitoleic acid (C16:1) and a free fatty acid form of oleic acid (C18:1), both being products of Sigma, were added to the solvent and uniformly emulsified by sonication in an ice bath to thereby prepare dosing samples.
(§3) Male Sprague-Dawley rats (hereinafter referred to as SD rats) were used in the test. Nine-week-old SD rats (Japan SLC, Inc.) were purchased and preliminarily reared for a week in individual cages. […]
(§4) After the preliminary rearing, the 10-week-old SD rats were divided into the following three groups (10 animals per group) considering their body weight: a control group administered with only the solvent (hereinafter referred to as “control group”); a group administered with palmitoleic acid (C16:1) (hereinafter “C16:1 administered group”); and a group administered with oleic acid (C18:1) (hereinafter “C18:1 administered group”); these groups of rats were subjected to the main test. […] With the level of gene expression in the control group taken as unity, the relative expression levels of respective genes in the C16:1 administered group or 18:1 administered group were calculated. […]

CCK mRNA = experiment: Small intestine CCK mRNA expression level in SD rats after single oral dose (real-time PCR); details: male SD rats; an hour after single oral dose 500 mg/kg; versus control group (FIG. 14)
Description: as §2, §3, §4

[3] = an hour after single oral dose 150 or 500 mg/kg, comparison with other fatty acids, versus control group (FIG. 11)

Molecule: CCCCC/C=C\C/C=C\CCCCCCCC(=O)O [C18:2, linoleic acid, reference compound]
- food intake [1, 3]: no significant drops

Molecule: decenoic acid [C10:1, reference compound]
- food intake [1, 3]: no significant drops

Molecule: CCCCCCCCCCCCCCCC(=O)O [C16:0, palmitic acid, reference compound]
- food intake (test for dose-dependency) ([1]; 30 minutes after single oral dose 50, 150 or 500 mg/kg, compared with control group and C16:0 administered group (FIG. 7)): decreased significantly in a dose-dependent manner

Molecule: CCCCCC/C=C\CCCCCCCC(=O)O [C16:1, palmitoleic acid]
- food intake ([2]; 300 mg in 10 mL solvent, 10 mL/kg oral every day, 4 weeks, compared with control group (FIGS. 1 and 2)): significant drops in the food intake
- percent body weight gain ([2]; 4 weeks after administration, compared with control group (FIG. 4)): significant drop in the percent body weight gain
- daily averages for the amount of food intake ([2]; daily oral administration, 4 weeks, FIG. 2, P<0.05): significant drop in the amount of food intake
- body weight ([2]; daily oral administration, second to fourth week of dosing, compared with control group (FIG. 3)): significant drop in body weight
- food intake ([1]; 30 minutes after single oral dose 500 mg/kg, compared with control group and C16:0 administered group (FIGS. 5 and 6)): significant drop in food intake
- food intake ([1]; 30 minutes after single oral dose 150 or 500 mg/kg, compared with control group and C18:1 administered group (FIGS. 8-9)): significant drops in food intake
- food intake ([1]; an hour after single oral dose 500 mg/kg, compared with control group and C16:0 administered group (FIGS. 5 and 6)): significant drop in food intake
- food intake ([1]; an hour after single oral dose 150 or 500 mg/kg, compared with control group and C18:1 administered group (FIGS. 8, 10)): significant drops in food intake
- food intake [1, 3]: significant drops in food intake
- blood CCK level (cholecystokinin (CCK); an hour after single oral dose 500 mg/kg): increased significantly
- small intestine CCK mRNA expression level (CCK mRNA): increased significantly

Molecule: CCCCCCCC/C=C\CCCCCCCC(=O)O [oleic acid, reference compound]
- blood CCK level (cholecystokinin (CCK); an hour after single oral dose 150 or 500 mg/kg): no significant elevation

Molecule: CCCCCCCCCCCC(=O)O [C12:0, lauric acid, reference compound]
- food intake [1, 3]: no significant drops
